# According to patent US12076373B2, “Formulations for oral administration of active agents” (Entera Bio Ltd., priority 2015, dated 2024):
# Key:
# [1] = Dissolution test: release of SNAC from tablet formulations in simulated gastric buffer; format: physicochemical; conditions: tablet with 100 mg sodium bicarbonate vs tablet without, trypsin inhibitor, teriparatide, 100 ml simulated gastric buffer without pepsin, pH 2.0, 37° C., USP 23 Apparatus 2, 50 rpm
# Procedure: The tablets were in a form of a homogeneous mixture.
# Each tablet formulation was subjected to a dissolution test in 100 ml of simulated gastric buffer (without pepsin), pH 2.0, at 37° C., according to USP 23 Apparatus 2 (paddle) with 50 rotations per minute. The amount of released SNAC in each sample was determined chromatographically, using an HPLC apparatus with Cosmosil™ 5 C18-MS-II (4.6 ID×250 mm) column. Mobile phase consisted of 50% acetonitrile and 50% phosphoric acid solution (0.1%). Flow rate was 1 ml/minute and injection volume was 25 μl. Amount of released SNAC was calculated as a percentage of the amount of SNAC in the formulation.
# [2] = Open label comparative pharmacokinetic study of oral teriparatide tablet in healthy volunteers; format: in vivo, human; conditions: oral tablet 0.75 mg teriparatide + SNAC + SBTI, with 150 ml of 3 mg/ml sodium bicarbonate solution vs 150 ml water; ten healthy volunteers, fasted; plasma
# Procedure: An open label comparative pharmacokinetic study was performed on ten healthy volunteers. On different visits, each volunteer received the same oral tablet containing 0.75 mg of teriparatide, a recombinant form of parathyroid hormone (1-34) (PTH(1-34)). In the first visit, the tablet was administered with 150 ml water, whereas in the second visit the tablet was administered with 150 ml of 3 mg/ml sodium bicarbonate aqueous solution.
# The formulation was composed of teriparatide (0.75 mg), SNAC (sodium 8-N-(2-hydroxybenzoyl)aminocaprylate), soybean trypsin inhibitor (SBTI) and a small amount of magnesium stearate.
# Tablets were administered in the morning after an 8-hour overnight fast. At each visit a standard meal was provided 3 hours after drug administration. […] There was a two week period between the two visits.
# To determine PTH(1-34) concentrations, blood samples (4 ml each) were drawn via an indwelling catheter from the forearm vein at predetermined time points during each visit. The cannula was flushed with 1.5 ml normal saline after each sampling. In addition, to avoid sample dilution, 1 ml of blood was drawn and discarded before the next sample. […] PTH(1-34) levels were measured using an IDS-iSYS automated assay for the measurement of intact PTH(1-34) in human plasma or serum. […] Relative absorption was determined based on the AUC (area under curve) parameter.
compound,measurement,setting,value
"O=C(O)CCCCCCCNC(=O)c1ccccc1O [SNAC, sodium 8-N-(2-hydroxybenzoyl)aminocaprylate]",dissolution of SNAC in tablets (released SNAC as a percentage of the amount of SNAC in the formulation),[1],considerably enhanced
"CC[C@H](C)[C@H](NC(=O)[C@H](CCC(=O)O)NC(=O)[C@H](CO)NC(=O)[C@@H](NC(=O)[C@@H](N)CO)C(C)C)C(=O)N[C@@H](CCC(N)=O)C(=O)N[C@@H](CC(C)C)C(=O)N[C@@H](CCSC)C(=O)N[C@@H](Cc1cnc[nH]1)C(=O)N[C@@H](CC(N)=O)C(=O)N[C@@H](CC(C)C)C(=O)NCC(=O)N[C@@H](CCCCN)C(=O)N[C@@H](Cc1cnc[nH]1)C(=O)N[C@@H](CC(C)C)C(=O)N[C@@H](CC(N)=O)C(=O)N[C@@H](CO)C(=O)N[C@@H](CCSC)C(=O)N[C@@H](CCC(=O)O)C(=O)N[C@@H](CCCN=C(N)N)C(=O)N[C@H](C(=O)N[C@@H](CCC(=O)O)C(=O)N[C@@H](Cc1c[nH]c2ccccc12)C(=O)N[C@@H](CC(C)C)C(=O)N[C@@H](CCCN=C(N)N)C(=O)N[C@@H](CCCCN)C(=O)N[C@@H](CCCCN)C(=O)N[C@@H](CC(C)C)C(=O)N[C@@H](CCC(N)=O)C(=O)N[C@@H](CC(=O)O)C(=O)N[C@H](C(=O)N[C@@H](Cc1cnc[nH]1)C(=O)N[C@@H](CC(N)=O)C(=O)N[C@@H](Cc1ccccc1)C(=O)O)C(C)C)C(C)C [PTH(1-34), teriparatide]",increase in absorption of PTH(1-34) (relative absorption based on AUC),[2],about 35%
